Data: ChEMBL document CHEMBL3046635, “Synthesis and Herbicidal Activity of New Pyrazole-4-carboxamide Derivatives” (J Pestic Sci, 2004)
Active and inactive are the calls of the source.

Legend:
[1] = system: Oryza sativa; assay: Phytotoxicity against Oryza sativa cv. Koshihikari (rice) at 2000 g a.i/ha measured after 14 days; assay type: organism-based; details: in vivo, 336 h
[2] = system: Echinochloa oryzicola; assay: Pre-emergence herbicidal activity against Echinochloa oryzicola at 2000 g a.i/ha measured after 14 days; assay type: functional, organism-based
[3] = system: Eleocharis acicularis; assay: Post-emergence herbicidal activity against Eleocharis acicularis assessed as bleaching of stem/leaf parts; assay type: functional, organism-based; also: test concentration or dose not given here
[4] = system: Eleocharis acicularis; assay: Pre-emergence herbicidal activity against Eleocharis acicularis assessed as bleaching of stem/leaf parts; assay type: functional, organism-based
[5] = system: Ammannia multiflora; assay: Pre-emergence herbicidal activity against Ammannia multiflora assessed as bleaching of stem/leaf parts; assay type: functional, organism-based
[6] = system: Rotala indica; assay: Pre-emergence herbicidal activity against Rotala indica assessed as bleaching of stem/leaf parts; assay type: functional, organism-based
[7] = system: Elatine triandra; assay: Pre-emergence herbicidal activity against Elatine triandra assessed as bleaching of stem/leaf parts; assay type: functional, organism-based
[8] = system: Lindernia procumbens; assay: Pre-emergence herbicidal activity against Lindernia procumbens assessed as bleaching of stem/leaf parts; assay type: functional, organism-based
[9] = system: Schoenoplectiella juncoides; assay: Pre-emergence herbicidal activity against Schoenoplectiella juncoides assessed as bleaching of stem/leaf parts; assay type: functional, organism-based
[10] = system: Pontederia vaginalis; assay: Pre-emergence herbicidal activity against Monochoria vaginalis assessed as bleaching of stem/leaf parts; assay type: functional, organism-based
[11] = system: Cyperus difformis; assay: Pre-emergence herbicidal activity against Cyperus difformis assessed as bleaching of stem/leaf parts; assay type: functional, organism-based
[12] = system: Echinochloa oryzicola; assay: Pre-emergence herbicidal activity against Echinochloa oryzicola assessed as bleaching of stem/leaf parts; assay type: functional, organism-based
[13] = system: Ammannia multiflora; assay: Post-emergence herbicidal activity against Ammannia multiflora assessed as bleaching of stem/leaf parts; assay type: functional, organism-based; also: test concentration or dose not given here
[14] = system: Elatine triandra; assay: Post-emergence herbicidal activity against Elatine triandra assessed as bleaching of stem/leaf parts; assay type: functional, organism-based; also: test concentration or dose not given here
[15] = system: Rotala indica; assay: Post-emergence herbicidal activity against Rotala indica assessed as bleaching of stem/leaf parts; assay type: functional, organism-based; also: test concentration or dose not given here
[16] = system: Schoenoplectiella juncoides; assay: Post-emergence herbicidal activity against Schoenoplectiella juncoides assessed as bleaching of stem/leaf parts; assay type: functional, organism-based; also: test concentration or dose not given here
[17] = system: Lindernia procumbens; assay: Post-emergence herbicidal activity against Lindernia procumbens assessed as bleaching of stem/leaf parts; assay type: functional, organism-based; also: test concentration or dose not given here
[18] = system: Pontederia vaginalis; assay: Post-emergence herbicidal activity against Monochoria vaginalis assessed as bleaching of stem/leaf parts; assay type: functional, organism-based; also: test concentration or dose not given here
[19] = system: Cyperus difformis; assay: Post-emergence herbicidal activity against Cyperus difformis assessed as bleaching of stem/leaf parts; assay type: functional, organism-based; also: test concentration or dose not given here
[20] = system: Echinochloa oryzicola; assay: Post-emergence herbicidal activity against Echinochloa oryzicola assessed as bleaching of stem/leaf parts; assay type: functional, organism-based; also: test concentration or dose not given here
[21] = system: Eleocharis acicularis; assay: Pre-emergence herbicidal activity against Eleocharis acicularis at 2000 g a.i/ha measured after 14 days; assay type: functional, organism-based
[22] = system: Schoenoplectiella juncoides; assay: Pre-emergence herbicidal activity against Schoenoplectiella juncoides at 2000 g a.i/ha measured after 14 days; assay type: functional, organism-based
[23] = system: Pontederia vaginalis; assay: Pre-emergence herbicidal activity against Monochoria vaginalis at 2000 g a.i/ha measured after 14 days; assay type: functional, organism-based
[24] = system: Ammannia multiflora; assay: Pre-emergence herbicidal activity against Ammannia multiflora at 2000 g a.i/ha measured after 14 days; assay type: functional, organism-based
[25] = system: Rotala indica; assay: Pre-emergence herbicidal activity against Rotala indica at 2000 g a.i/ha measured after 14 days; assay type: functional, organism-based
[26] = system: Elatine triandra; assay: Pre-emergence herbicidal activity against Elatine triandra at 2000 g a.i/ha measured after 14 days; assay type: functional, organism-based
[27] = system: Lindernia procumbens; assay: Pre-emergence herbicidal activity against Lindernia procumbens at 2000 g a.i/ha measured after 14 days; assay type: functional, organism-based
[28] = system: Cyperus difformis; assay: Pre-emergence herbicidal activity against Cyperus difformis at 2000 g a.i/ha measured after 14 days; assay type: functional, organism-based

SMILES: CCCN(CC)C(=O)c1cn(C)nc1OCc1cc(Br)cc(Br)c1
- Activity [1]: Non-toxic
- Activity [2]: inactive
- Activity [3]: Active
- Activity [4]: Active
- Activity [5]: Active
- Activity [6]: Active
- Activity [7]: Active
- Activity [8]: Active
- Activity [9]: Active
- Activity [10]: Active
- Activity [11]: Active
- Activity [12]: Active
- Activity [13]: Active
- Activity [14]: Active
- Activity [15]: Active
- Activity [16]: Active
- Activity [17]: Active
- Activity [18]: Active
- Activity [19]: Active
- Activity [20]: Active
- Activity [21]: inactive
- Activity [22]: inactive
- Activity [23]: inactive
- Activity [24]: inactive
- Activity [25]: inactive
- Activity [26]: inactive
- Activity [27]: inactive
- Activity [28]: inactive
